In paper PMC9029994 (RSC Advances, 2021):

Molecular target: Sperm whale WT Mb (myoglobin, Mb) (Physeter macrocephalus, UniProt P02185, F44H/H65A)
Test: biochemical

Sequence of Sperm whale WT Mb (myoglobin, Mb) (P02185 2-154 F44H/H65A): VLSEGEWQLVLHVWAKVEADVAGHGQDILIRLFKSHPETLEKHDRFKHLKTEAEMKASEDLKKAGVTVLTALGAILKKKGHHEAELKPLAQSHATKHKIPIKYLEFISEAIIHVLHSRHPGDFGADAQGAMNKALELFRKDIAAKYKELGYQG

Kd: 474 µM
SMILES: CN(C)c1ccc(C(=C2C=CC(=[N+](C)C)C=C2)c2ccccc2)cc1 [MG, malachite green]
